Molecules are shown by their SMILES. Read-outs that look alike come from different tables or passages of the source.

The subject of one test is Aβ42. Briefly: γ-secretase-modulating activity, Method 2: Aβ42 Alphalisa in supernatant of SKNBE2 cells carrying APP 695-wild type (Table 3b). The class given is cell-based. Conditions: overnight. The method, then: (§1) Screening was carried out using SKNBE2 cells carrying the APP 695-wild type, grown in Dulbecco's Modified Eagle's Medium/Nutrient mixture F-12 (DMEM/NUT-mix F-12) (HAM) provided by Invitrogen (cat no. 10371-029) containing 5% Serum/Fe supplemented with 1% non-essential amino acids, 1-glutamine 2 mM, Hepes 15 mM, penicillin 50 U/ml (units/ml) en streptomycin 50 μg/ml. Cells were grown to near confluency.
(§2) The screening was performed using a modification of the assay as described in Citron et al (1997) Nature Medicine 3: 67. Briefly, cells were plated in a 384-well plate at 10^4 cells/well in Ultraculture (Lonza, BE12-725F) supplemented with 1% glutamine (Invitrogen, 25030-024), 1% non-essential amino acid (NEAA), penicillin 50 U/ml en streptomycin 50 μg/ml in the presence of test compound at different test concentrations. The cell/compound mixture was incubated overnight at 37° C., 5% CO2. The next day the media were assayed by two sandwich immuno-assays, for Aβ42 and Aβtotal.
(§3) Aβtotal and Aβ42 concentrations were quantified in the cell supernatant using the Aphalisa technology (Perkin Elmer). Alphalisa is a sandwich assay using biotinylated antibody attached to streptavidin coated donorbeads and antibody conjugated to acceptor beads. In the presence of antigen, the beads come into close proximity. The excitation of the donor beads provokes the release of singlet oxygen molecules that trigger a cascade of energy transfer in the acceptor beads, resulting in light emission. To quantify the amount of Aβ42 in the cell supernatant, monoclonal antibody specific to the C-terminus of Aβ42 (JRF/cAβ42/26) was coupled to the receptor beads and biotinylated antibody specific to the N-terminus of Aβ (JRF/AβN/25) was used to react with the donor beads. To quantify the amount of Aβ total in the cell supernatant, monoclonal antibody specific to the N-terminus of Aβ (JRF/AβN/25) was coupled to the receptor beads and biotinylated antibody specific to the mid region of Aβ (biotinylated 4G8) was used to react with the donor beads.
To obtain the values reported in Table 3b, the data were calculated as percentage of the maximum amount of amyloid Beta 42 measured in the absence of the test compound.
(§4) The sigmoidal dose response curves were analyzed using non-linear regression analysis with percentage of the control plotted against the log concentration of the compound. A 4-parameter equation was used to determine the IC50.
(§5) The IC50 values are shown in Table 3b (Aβtot means Aβtotal).

In a further test the test system is Aβtotal. Briefly: γ-secretase-modulating activity, Method 2: Aβtotal Alphalisa in supernatant of SKNBE2 cells carrying APP 695-wild type (Table 3b). The format is cell-based. The following applies: overnight, read-out: IC50 Aβtot. As to the method:
as §1, §2, §3, §4, §5
On the technique in general: In Alpha technology, singlet oxygen from a donor bead excites a nearby acceptor bead.

Turning to `COc1nc(-c2nc(C)n(C(C)c3ccc(F)cc3)n2)ccc1-n1cnc(C)c1` (racemic) [Compound 69], the figures for the IC50 in the test with Aβ42 and in the test on Aβtotal were 1.26 µM and above 10 µM, respectively.
For `COc1cc(-c2nc(N3CCC(c4cccc(C(F)(F)F)c4)C3)n(C(C)C)n2)ccc1-n1cnc(C)c1` (racemic) [Compound 74], in that order: 0.251 µM and 6.46 µM.
For `COc1cc(-c2nc(N3CCCC(C(F)(F)F)C3)n(C(C)C)n2)ccc1-n1cnc(C)c1` (racemic) [Compound 75], in that order: 0.676 µM and 6.46 µM.
For `COc1cc(-c2nc(N3CCCC3)n(C(C)c3ccc(F)cc3)n2)ccc1-n1cnc(C)c1` (racemic) [Compound 76], in that order: 0.851 µM and 12.6 µM.
Consider `COc1cc(-c2nc(N3CCCC(c4ccccc4)C3)n(C)n2)ccc1-n1cnc(C)c1` (racemic) [Compound 78], for which the concentration for half-maximal inhibition (IC50) (in general, the point on the concentration scale where inhibition reaches its midpoint) in the test with Aβ42 stood at 0.05 µM; in the test with Aβtotal it was 8.51 µM.
For `CCC(C)n1nc(-c2ccc(-n3cnc(C)c3)c(OC)c2)nc1Nc1cc(C(F)(F)F)ccc1F` (racemic) [Compound 179], in that order: 0.019 µM and 5.01 µM.
For `COc1cc(-c2nc(C(C)(C)O)n(C(C)c3ccc(F)cc3)n2)ccc1-n1cnc(C)c1` (racemic) [Compound 300], in that order: 0.871 µM and above 10 µM.
`COc1cc(-c2nc(Nc3cc(OC4CCOC4)ccc3F)n(C)n2)ccc1-n1cnc(C)c1` (racemic) [Compound 358] showed an IC50 in the test on Aβ42 of 0.062 µM.
Consider `COc1cc(-c2n[nH]c(-c3ccc(F)cc3)n2)ccc1-n1cnc(C)c1` [Compound 4], for which the IC50 in the test on Aβ42 (Homo sapiens) is 0.646 µM; in the test on Aβtotal (Homo sapiens), above 10 µM.
`COc1cc(-c2nc(-c3ccc(F)cc3)n(C(C)C)n2)ccc1-n1cnc(C)c1` [Compound 5]: the figures for the IC50 in the test with Aβ42 (Homo sapiens) and in the test on Aβtotal (Homo sapiens) were 0.17 µM and above 10 µM, respectively.
For `COc1cc(-c2n[nH]c(-c3cccc(C(F)(F)F)c3)n2)ccc1-n1cnc(C)c1` [Compound 6], in that order: 0.309 µM and above 10 µM.
Take `COc1cc(-c2nc(-c3cccc(C(F)(F)F)c3)n(C)n2)ccc1-n1cnc(C)c1` [Compound 7]: the IC50 with Aβ42 is 0.117 µM; in the test with Aβtotal, above 10 µM.
For the compound `COc1cc(-c2nc(-c3cccc(C(F)(F)F)c3)nn2C)ccc1-n1cnc(C)c1` [Compound 8], the values for the IC50 with Aβ42 and in the test with Aβtotal were 4.27 µM and above 10 µM, respectively.
`COc1cc(-c2nc(Nc3ccc(F)cc3C(F)(F)F)nn2C)ccc1-n1cnc(C)c1` [Compound 16]: the IC50 was 0.309 µM in the test with Aβ42 and above 10 µM in the test on Aβtotal.
As for `COc1cc(-c2nc3n(n2)CCCc2ccccc2-3)ccc1-n1cnc(C)c1` [Compound 17], the IC50 was 0.407 µM in the test with Aβ42 (Homo sapiens) and above 10 µM with Aβtotal (Homo sapiens).
As for `COc1cc(-c2nc(C)n(-c3ccccc3C(F)(F)F)n2)ccc1-n1cnc(C)c1` [Compound 19], the IC50 in the test with Aβ42 (Homo sapiens) was 0.162 µM; in the test on Aβtotal (Homo sapiens), above 10 µM.
Regarding `COc1cc(-c2nc(Cc3ccc(F)cc3)n(C)n2)ccc1-n1cnc(C)c1` [Compound 22], the IC50 in the test with Aβ42 was 0.479 µM; in the test on Aβtotal it was above 10 µM.
`COc1cc(-c2nc(-c3ccccc3Cl)nn2C)ccc1-n1cnc(C)c1` [Compound 23]: the IC50 with Aβ42 is 5.01 µM; with Aβtotal, above 10 µM.
For `COc1cc(-c2nc(C)n(-c3cccc(C(F)(F)F)c3)n2)ccc1-n1cnc(C)c1` [Compound 30], in that order: 0.295 µM and above 10 µM.
For `COc1cc(-c2nc(C(C)C)n(-c3ccc(F)cc3)n2)ccc1-n1cnc(C)c1` [Compound 31], in that order: 0.447 µM and above 10 µM.
For `COc1cc(-c2n[nH]c(C3CCCCC3)n2)ccc1-n1cnc(C)c1` [Compound 33], in that order: 0.269 µM and above 10 µM.
For `COc1cc(-c2nc(C3CCCCC3)n(C)n2)ccc1-n1cnc(C)c1` [Compound 34], the IC50 was 0.24 µM in the test with Aβ42 and above 10 µM with Aβtotal.
For `COc1cc(-c2nc(N3CC(C)OC(C)C3)n(C)n2)ccc1-n1cnc(C)c1` (stereo not shown) [Compound 35], in that order: 0.776 µM and above 10 µM.
For the compound `COc1cccc(-c2nc(-c3ccc(-n4cnc(C)c4)c(OC)c3)nn2C)c1` [Compound 36], the 50% inhibitory concentration (IC50) in the test on Aβ42 was 0.575 µM; with Aβtotal, above 10 µM.
For `COc1cccc(-c2nc(-c3ccc(-n4cnc(C)c4)c(OC)c3)nn2C(C)C)c1` [Compound 37], the results for the half-maximal inhibitory concentration (IC50) in the test on Aβ42 and in the test with Aβtotal were 0.085 µM and 11.2 µM, respectively.
For `COc1cc(-c2nc(-c3ccccc3C(F)(F)F)n(C)n2)ccc1-n1cnc(C)c1` [Compound 38], in that order: 0.158 µM and above 10 µM.
`COc1cc(-c2nc(-c3ccc(F)cc3)n(C)n2)ccc1-n1cnc(C)c1` [Compound 40]: the IC50 is 0.355 µM in the test on Aβ42 and above 10 µM in the test with Aβtotal.
For `COc1cc(-c2nc(-c3ccc(F)cc3)n(C3CCCC3)n2)ccc1-n1cnc(C)c1` [Compound 41], in that order: 0.407 µM and above 10 µM.
On to `COc1cc(-c2nc(-c3ccc(-n4cnc(C)c4)c(OC)c3)nn2C)ccc1Cl` [Compound 43], for which the results for the IC50 in the test with Aβ42 and in the test with Aβtotal were 0.148 µM and above 10 µM, respectively.
For `COc1cc(-c2nc(/C=C/c3ccc(F)cc3)n(C)n2)ccc1-n1cnc(C)c1` [Compound 45], in that order: 0.085 µM and above 10 µM.
For `COc1cc(-c2nc(Cc3ccc(F)cc3C(F)(F)F)n(C)n2)ccc1-n1cnc(C)c1` [Compound 46], in that order: 0.138 µM and 8.51 µM.
Take `COc1cc(-c2nc(C3(c4ccc(F)cc4)CC3)n(C)n2)ccc1-n1cnc(C)c1` [Compound 47]: the figures for the half-inhibitory concentration (IC50) with Aβ42 and in the test on Aβtotal were 0.302 µM and 3.24 µM, respectively.
For `COc1cc(-c2nc(Nc3cc(F)c(F)c(F)c3)n(C)n2)ccc1-n1cnc(C)c1` [Compound 48], in that order: 0.245 µM and 6.92 µM.
On to `COc1cc(-c2nc(Nc3ccc(F)cc3C(F)(F)F)n(C(C)C)n2)ccc1-n1cnc(C)c1` [Compound 49], for which the IC50 was determined as 0.04 µM with Aβ42 and 6.03 µM in the test with Aβtotal.
With `COc1cc(-c2nc(Nc3cc(C)ccc3F)n(C)n2)ccc1-n1cnc(C)c1` [Compound 350], the IC50 in the test on Aβ42 was 0.044 µM.
Still for that read-out and setting: to `COc1cc(-c2nc(Nc3cc(C)ccc3C(F)(F)F)n(C)n2)ccc1-n1cnc(C)c1` [Compound 351] belongs 0.028 µM; to `COc1cc(-c2nc(Nc3ccc(C)cc3F)n(C)n2)ccc1-n1cnc(C)c1` [Compound 352], 0.06 µM; to `CCOc1ccc(F)c(Nc2nc(-c3ccc(-n4cnc(C)c4)c(OC)c3)nn2C)c1` [Compound 354], 0.022 µM.
Take `COCCOc1ccc(F)c(Nc2nc(-c3ccc(-n4cnc(C)c4)c(OC)c3)nn2C)c1` [Compound 355]: in the test on Aβ42, inhibition was half-maximal at 0.135 µM (IC50).
Regarding `COc1cc(-c2nc(Nc3cc(OCC4CC4)ccc3F)n(C)n2)ccc1-n1cnc(C)c1` [Compound 356], 0.02 µM corresponded to half-maximal inhibition with Aβ42 (IC50).
Same read-out and setting: to `COc1cc(-c2nc(Nc3cc(C(C)(C)C)ccc3F)n(C)n2)ccc1-n1cnc(C)c1` [Compound 357] belongs 0.007 µM; to `COc1nc(-c2nc3n(n2)CCC[C@@H]3c2ccc(F)cc2C)ccc1-n1cnc(C)c1` [Compound 360], 0.24 µM.
Same read-out and setting: to `COc1cc(-c2nc3n(n2)C(C)CCC3c2ccc(F)cc2C)ccc1-n1cnc(C)c1` (stereo not shown) [Compound 363] belongs 0.407 µM.
Regarding `COc1ccc(F)c(C2CCCn3nc(-c4ccc(-n5cnc(C)c5)c(OC)c4)nc32)c1` (stereo not shown) [Compound 364], it took 0.083 µM to reach half-maximal inhibition in the test with Aβ42 (IC50).
`COc1cc(-c2nc(C3CCc4ccccc4N3)n(C)n2)ccc1-n1cnc(C)c1` (stereo not shown) [Compound 365] displayed an IC50 in the test with Aβ42 (Homo sapiens) of 0.447 µM.
On the same count and under the same terms, to `COc1cc(-c2nc(C3CCc4ccccc4N3C)n(C)n2)ccc1-n1cnc(C)c1` (stereo not shown) [Compound 366] belongs 0.513 µM.
With `COc1cc(-c2nc(Nc3ccccc3OC(C)C)n(C)n2)ccc1-n1cnc(C)c1` [Compound 367], the midpoint of inhibition in the test on Aβ42, the IC50, lay at 0.078 µM.
In the test on Aβ42, `COc1nc(-c2nc3n(n2)CCC(C)C3c2ccc(F)cc2)ccc1-n1cnc(C)c1` (stereo not shown) [Compound 368] showed an IC50 of 0.066 µM.
Still for that read-out and setting: with `COc1cc(-c2nc3n(n2)CCC(C)C3c2ccc(F)cc2)ccc1-n1cnc(C)c1` (stereo not shown) [Compound 369] the figure was 0.123 µM; with `COc1nc(-c2nc3n(n2)CCOC3c2cc(C(F)(F)F)ccc2C)ccc1-n1cnc(C)c1` (stereo not shown) [Compound 370], 0.036 µM.
Take `COc1cc(-c2nc3n(n2)CCOC3c2cc(C(F)(F)F)ccc2C)ccc1-n1cnc(C)c1` (stereo not shown) [Compound 371]: the IC50 in the test with Aβ42 came out at 0.04 µM.
In the test on Aβ42, `COc1nc(-c2nc3n(n2)CCOC3c2cc(OC(F)(F)F)ccc2F)ccc1-n1cnc(C)c1` (stereo not shown) [Compound 374] came in with an IC50 of 0.062 µM.

The values above are taken from US8946266B2, “Substituted triazole and imidazole derivatives as gamma secretase modulators” (Janssen Pharmaceuticals, Inc., priority 2009, dated 2015).
